Assay results from patent US12428406B2 (PMV Pharmaceuticals, Inc., priority 2019, dated 2025).

Target: T1, p53 Y220C (Homo sapiens, UniProt P04637, Y220C)
T1 construct: The recombinant protein was a truncation mutant containing only amino acids 94-312 of p53; made in house; host or cells: E. coli
Experiment: In vitro DNA binding activity assay (HTRF / TR-FRET): stabilization of p53 Y220C and increase of its DNA binding activity
Type: biochemical
Settings: recombinant His-tagged p53 Y220C DNA binding domain (aa 94-312), biotin-labeled consensus DNA, incubated at 27° C. or 29° C. for 60 min
How it was run: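 Test compounds, diluted 3-fold in DMSO from 4.5 mM stocks, were incubated with bacterially expressed His-tagged p53 Y220C at room temperature for 15 min, and after a further step for 20 min. DNA binding was detected by time-resolved FRET between APC and europium labels. SC150 marks the concentration increasing binding by 50%.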

T1 sequence (P04637 94-312, change not shown): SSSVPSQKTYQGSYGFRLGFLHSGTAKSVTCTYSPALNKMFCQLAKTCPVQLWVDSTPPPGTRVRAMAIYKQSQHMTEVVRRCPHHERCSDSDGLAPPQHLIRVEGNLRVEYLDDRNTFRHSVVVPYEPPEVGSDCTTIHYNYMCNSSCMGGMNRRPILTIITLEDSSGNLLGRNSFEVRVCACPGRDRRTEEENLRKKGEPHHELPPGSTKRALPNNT

| SC150 (concentration of the compound required to increase the DNA binding activity by 50%) | SMILES |
| --- | --- |
| ++ (++ = 0.05 μM ≤ SC150 < 0.1 μM) | COCC(O)CN1CCC(Nc2cccc3c2cc(C#CCNc2ccc(S(C)(=O)=O)cc2)n3CC(F)(F)F)C1 (stereo not drawn) [Compound 457A, l-{3-[(2-{3-[(4-methanesulfonylphenyl)amino]prop-1-yn-1-yl}-1-(2,2,2-trifluoroethyl)-1H-indol-4-yl)amino]pyrrolidin-1-yl}-3-methoxypropan-2-ol] |
| + (+ = 0 μM ≤ SC150 < 0.05 μM) | COc1cc(S(C)(=O)=O)ccc1NCC#Cc1cc2c(NC3CCN(C4CCOCC4)C3)cccc2n1CC(F)(F)F (stereo not drawn) [Compound 458A, 2-{3-[(4-methanesulfonyl-2-methoxyphenyl)amino]prop-1-yn-1-yl}-N-[1-(oxan-4-yl)pyrrolidin-3-yl]-1-(2,2,2-trifluoroethyl)-1H-indol-4-amine] |
| + (+ = 0 μM ≤ SC150 < 0.05 μM) | COc1cc(S(=O)(=O)N2CCOCC2)ccc1NCC#Cc1cc2c(NC3CCNCC3)cccc2n1CC(F)(F)F [Compound 459A, 2-(3-{[2-methoxy-4-(morpholine-4-sulfonyl)phenyl]amino}prop-1-yn-1-yl)-N-(piperidin-4-yl)-1-(2,2,2-trifluoroethyl)-1H-indol-4-amine] |
| + (+ = 0 μM ≤ SC150 < 0.05 μM) | COc1cc(S(=O)(=O)N(C)C)ccc1NCC#Cc1cc2c(NC3CCNCC3)cccc2n1CC(F)(F)F [Compound 460A] |
| + (+ = 0 μM ≤ SC150 < 0.05 μM) | CS(=O)(=O)c1ccc(NCC#Cc2cc3c(NC4CCNCC4)cccc3n2CC(F)(F)F)c(OCC#N)c1 [Compound 461A, 2-{5-methanesulfonyl-2-[(3-{4-[(piperidin-4-yl)amino]-1-(2,2,2-trifluoroethyl)-1H-indol-2-yl}prop-2-yn-1-yl)amino]phenoxy}acetonitrile] |
| + (+ = 0 μM ≤ SC150 < 0.05 μM) | COc1cc(S(C)(=O)=O)ccc1NCC#Cc1cc2c(N[C@@H]3CCCNC3)cccc2n1CC(F)(F)F [Compound 463A, 2-{3-[(4-methanesulfonyl-2-methoxyphenyl)amino]prop-1-yn-1-yl}-N-[(3R)-piperidin-3-yl]-1-(2,2,2-trifluoroethyl)-1H-indol-4-amine] |
| + (+ = 0 μM ≤ SC150 < 0.05 μM) | COc1cc(S(N)(=O)=O)ccc1NCC#Cc1cc2c(N[C@H]3CCN[C@@H](C)C3)cccc2n1CC(F)(F)F [Compound 464A, 3-methoxy-4-{[3-(4-{[(2S,4S)-2-methylpiperidin-4-yl]amino}-1-(2,2,2-trifluoroethyl)-1H-indol-2-yl)prop-2-yn-1-yl]amino} benzene-1-sulfonamide] |
| + (+ = 0 μM ≤ SC150 < 0.05 μM) | CN1CCC(Nc2cccc3c2cc(C#CCNc2ccc(S(C)(=O)=O)cc2OC(F)(F)F)n3CC(F)(F)F)CC1 [Compound 466A] |
| + (+ = 0 μM ≤ SC150 < 0.05 μM) | COc1cc(C(C)(C)C#N)ncc1NCC#Cc1cc2c(NC3CCN(C)CC3)cccc2n1CC(F)(F)F [Compound 468A, 2-{4-methoxy-5-[(3-{4-[(1-methylpiperidin-4-yl)amino]-1-(2,2,2-trifluoroethyl)-1H-indol-2-yl}prop-2-yn-1-yl)amino]pyridin-2-yl}-2-methylpropanenitrile] |
| + (+ = 0 μM ≤ SC150 < 0.05 μM) | COc1cc(S(=O)(=O)Nc2ccon2)ccc1NCC#Cc1cc2c(NC3CCN(C)CC3)cccc2n1CC(F)(F)F [Compound 469A, 3-methoxy-4-[(3-{4-[(1-methylpiperidin-4-yl)amino]-1-(2,2,2-trifluoroethyl)-1H-indol-2-yl}prop-2-yn-1-yl)amino]-N-(1,2-oxazol-3-yl)benzene-1-sulfonamide] |
| + (+ = 0 μM ≤ SC150 < 0.05 μM) | COc1cc(S(=O)(=O)NC2CCOCC2)ccc1NCC#Cc1cc2c(NC3CCN(C)CC3)cccc2n1CC(F)(F)F [Compound 470A, 3-methoxy-4-[(3-{4-[(1-methylpiperidin-4-yl)amino]-1-(2,2,2-trifluoroethyl)-1H-indol-2-yl}prop-2-yn-1-yl)amino]-N-(oxan-4-yl)benzene-1-sulfonamide] |
| + (+ = 0 μM ≤ SC150 < 0.05 μM) | COc1cc(S(=O)(=O)Nc2cc(C)on2)ccc1NCC#Cc1cc2c(NC3CCN(C)CC3)cccc2n1CC(F)(F)F [Compound 471A, 3-methoxy-N-(5-methyl-1,2-oxazol-3-yl)-4-[(3-{4-[(1-methylpiperidin-4-yl)amino]-1-(2,2,2-trifluoroethyl)-1H-indol-2-yl}prop-2-yn-1-yl)amino]benzene-1-sulfonamide] |
| + (+ = 0 μM ≤ SC150 < 0.05 μM) | COc1cc(S(=O)(=O)N(C)CCO)ccc1NCC#Cc1cc2c(NC3CCN(C)CC3)cccc2n1CC(F)(F)F [Compound 472A, N-(2-hydroxyethyl)-3-methoxy-N-methyl-4-[(3-{4-[(1-methylpiperidin-4-yl)amino]-1-(2,2,2-trifluoroethyl)-1H-indol-2-yl}prop-2-yn-1-yl)amino]benzene-1-sulfonamide] |
| + (+ = 0 μM ≤ SC150 < 0.05 μM) | COc1cc(S(=O)(=O)N(C)C)ccc1NCC#Cc1cc2c(NC3CCN(C)CC3)cccc2n1CC(F)(F)F [Compound 473A, 3-methoxy-N,N-dimethyl-4-[(3-{4-[(1-methylpiperidin-4-yl)amino]-1-(2,2,2-trifluoroethyl)-1H-indol-2-yl}prop-2-yn-1-yl)amino]benzene-1-sulfonamide] |
| + (+ = 0 μM ≤ SC150 < 0.05 μM) | COc1cc(S(N)(=O)=O)ccc1NCC#Cc1cc2c(NC3CCN(C)CC3)cc(F)cc2n1CC(F)(F)F [Compound 474A, 4-[(3-{6-fluoro-4-[(1-methylpiperidin-4-yl)amino]-1-(2,2,2-trifluoroethyl)-1H-indol-2-yl}prop-2-yn-1-yl)amino]-3-methoxybenzene-1-sulfonamide] |
| +++ (+++ = 0.1 μM ≤ SC150 < 0.2 μM) | COc1cc(S(C)(=O)=O)ccc1NCC#Cc1cc2c(NC3CCN(C)CC3)cc(F)cc2n1CC(F)(F)F [Compound 475A, 6-fluoro-2-{3-[(4-methanesulfonyl-2-methoxyphenyl)amino]prop-1-yn-1-yl}-N-(1-methylpiperidin-4-yl)-1-(2,2,2-trifluoroethyl)-1H-indol-4-amine] |
| + (+ = 0 μM ≤ SC150 < 0.05 μM) | COCCN(C)S(=O)(=O)c1ccc(NCC#Cc2cc3c(NC4CCN(C)CC4)cccc3n2CC(F)(F)F)c(OC)c1 [Compound 477A, 3-methoxy-N-(2-methoxyethyl)-N-methyl-4-[(3-{4-[(1-methylpiperidin-4-yl)amino]-1-(2,2,2-trifluoroethyl)-1H-indol-2-yl}prop-2-yn-1-yl)amino]benzene-1-sulfonamide] |
| ++++ (++++ = 0.2 μM ≤ SC150 < 1 μM) | COc1cc(S(C)(=O)=O)ccc1N(C)CC#Cc1cc2c(NC3CCN(C)CC3)cccc2n1CC(F)(F)F [Compound 478A, 2-{3-[(4-methanesulfonyl-2-methoxyphenyl) (methyl)amino]prop-1-yn-1-yl}-N-(1-methylpiperidin-4-yl)-1-(2,2,2-trifluoroethyl)-1H-indol-4-amine] |
